Assay results as given in patent publication US9096593B2, “Compounds and methods for kinase modulation, and indications therefor” (Plexxikon Inc., priority 2009, dated 2015).
Like-named read-outs stand apart in the source and are kept apart here.

Legend:
[1] = Turbidity assay of relative solubility in aqueous buffers; type: physicochemical; details: for turbidity threshold (L, M, H) 1.4: pH 1.4 as headed (method: SGF pH 1.5); for turbidity threshold (L, M, H) 4.5: pH 4.5 (SIF); for turbidity threshold (L, M, H) 6.8: pH 6.8 (SIF); for turbidity threshold (L, M, H) 7.4: pH 7.4 (HEPES)
Procedure: As an indication of relative solubility, the turbidity of compounds in aqueous solutions is assessed. To assess possible compound properties in different physiological compartments, such as stomach, intestine, and blood, a series of aqueous buffers with varying pH is used. Thus each compound is diluted into four different physiologically relevant buffers and solution turbidity is measured by spectrophotometry.
Compounds are dissolved at a concentration of 25 mM in dimethyl sulfoxide, then serially diluted 1:1 into a 96 well plate, diluting 10 times in pure dimethyl sulfoxide, with the final well of each row a dimethyl sulfoxide blank. In an assay plate, 99 μL of appropriate buffer is added to each well, and 1 μL of each sample dilution is added to the buffer, achieving a range of final total concentrations in aqueous solutions having different pH. The buffers used are Simulated Gastric Fluid (SGF-pH 1.5) 0.5M NaCl, pH 1.5; Simulated Intestinal fluid (SIF-pH 4.5 and pH 6.8) 0.05M NaH2PO4, pH 4.5 and 6.8; and Hepes Buffer (HEPES-pH 7.4) 10 mM HEPES, 150 mM NaCl, pH 7.4. Control compounds pyrene, estriol and propranolol HCl are also assessed. Plates are spun and then mixed for 1 minute, and the absorbance is read using a Tecan Safire II to read wavelengths in the visible range (490, 535, and 650 nm) at four locations per well, reflecting the degree of turbidity present. The average optical density for each wavelength in each well is graphed vs. compound concentration, and the concentration at which the curve crosses a threshold O.D. of 0.01 for each wavelength is reported as the endpoint turbidity assay result. The average of the three wavelengths is used to compare turbidity of compounds. Compounds are considered to have low solubility if the threshold concentration is <31.3 μM, moderate solubility if the threshold concentration is 31.3 μM to 250 μM, and high solubility if the threshold concentration is >250 μM.

CYP1A2 = CYP1A2 (Homo sapiens (Human), UniProt P05177); experiment: CYP enzyme inhibition, fluorescent substrate; details: human, 15 min
Procedure: (§1) CYP (Cytochrome P450) enzymes are the major drug metabolizing enzymes present in the liver. The inhibition of CYP enzyme activity (IC50) for each of CYP1A2, CYP2C19, CYP2C9, CYP2D6, CYP3A4(BFC) and CYP3A4(BQ) is determined for compounds, where inhibition of metabolism of a known substrate leads to a decrease in the fluorescence of the metabolized product. The fluorescence of the product is monitored as a function of compound concentration.
(§2) Compounds are dissolved in DMSO to a concentration of 100 mM. These are diluted 1 μL into 82 μL of acetonitrile. An 11 μL aliquot of this solution is then added to 204 μL of cofactor mix (1.3% NADPH Regeneration system Solution A, 1.04% NADPH Regeneration system Solution B from BD Biosciences, 5% acetonitrile and 0.05% DMSO). These are then serially diluted 1:1 (160 μL to 160 μL co-factor mix) for a total of 10 points. A 10 μL aliquot of this final mixture is dispensed into 384 well assay plates and incubated for 10 minutes at 37° C. Enzyme and substrate mix (10 μL; […] CYP1A2/5 μM CEC; 1.0 μmol CYP2C9/75 μM MFC; […] CYP2C19/25 μM CEC; 1.5 μmol CYP2D6/1.5 μM AMMC; 1.0 μmol CYP3A4/50 μM BFC; or 1.0 μmol CYP3A4/40 μM BQ) is added to these assay plates. Assay plates are incubated at 37° C. (CYP1A2-15 min; CYP2C9-45 min; CYP2C19, 2D6 and 3A4-30 min) and read in a Tecan Safire 2 plate reader (CYP1A2, 2C19 and 3A4 409 ex/460 em; CYP2C9 and 2D6409 ex/530 em). The signal versus compound concentration is used to determine the IC50. The enzymes and substrates for this assay are obtained from BD Biosciences.

CYP2C19 = CYP2C19 (Homo sapiens (Human), UniProt P33261); experiment: CYP enzyme inhibition, fluorescent substrate
Procedure: as §1, §2

CYP2C9 = CYP2C9 (Homo sapiens (Human), UniProt P11712); experiment: CYP enzyme inhibition, fluorescent substrate
Procedure: as §1, §2

CYP2D6 = CYP2D6 (Homo sapiens (Human), UniProt P10635); experiment: CYP enzyme inhibition, fluorescent substrate; details: read-out: Cyp IC50 (μM) 2D6
Procedure: as §1, §2

CYP3A4(BFC) = CYP3A4(BFC) (Homo sapiens (Human), UniProt P08684); experiment: CYP enzyme inhibition, fluorescent substrate
Procedure: as §1, §2

CYP3A4(BQ) = CYP3A4(BQ) (Homo sapiens (Human), UniProt P08684); experiment: CYP enzyme inhibition, fluorescent substrate; details: read-out: Cyp IC50 (μM) 3A4(BQ); BQ substrate
Procedure: as §1, §2

Fms kinase = Fms kinase (Homo sapiens (Human), UniProt P07333); experiment: Fms kinase biochemical activity assay (AlphaScreen, biotin-(E4Y)10 phosphorylation)
Procedure: In one assay the biochemical activity IC50 values are determined with respect to inhibition of Fms kinase activity, where inhibition of phosphorylation of a peptide substrate is measured as a function of compound concentration. Compounds to be tested, dissolved in DMSO (1 μL), are added to a white 384-well plate (Costar #3705). Working stocks of Fms kinase (Invitrogen #PV3249), biotin-(E4Y)10 substrate (Upstate Biotech, Cat#12-440), and ATP (Sigma, Cat#A-3377) are prepared in 25 mM Hepes pH 7.5, 0.5 mM MgCl2, 2 mM MnCl2, 2 mM DTT, 0.01% BSA, and 0.01% Tween-20. All components are added to the 384-well plate for a final concentration of 1 ng/well Fms, 30 nM biotin-(E4Y)10 (Upstate Biotechnology) and 100 μM ATP in a volume of 20 μL. Each sample is at 5% DMSO. The plate is then incubated for 20 minutes at 30° C. Just before use, working stocks of donor and acceptor beads from the AlphaScreen PY20 Detection Kit (PerkinElmer, Cat#676601M) are prepared in 25 mM Hepes pH 7.5, pH 7.4, 100 mM EDTA, 0.01% BSA. To stop the reaction, the plate is uncovered in the dark and 5 μL of Donor Beads solution (Streptavidin beads) is added to each well. The plate is incubated at room temperature for 20 minutes. Five microliters of Acceptor Beads solution (PY20 coated beads) are then added to each well. The final concentration of each bead is 10 μg/mL. The plates are incubated at room temperature for 60 minutes. Fluorescence signal is recorded on the Envision reader. […] The signal vs. compound concentration is used to determine the IC50.

c-Kit kinase = c-Kit kinase (Homo sapiens (Human), UniProt P10721); experiment: c-Kit kinase biochemical activity assay (AlphaScreen, biotin-(E4Y)10 phosphorylation)
Procedure: In one assay the biochemical activity IC50 values are determined with respect to inhibition of c-Kit kinase activity, where inhibition of phosphorylation of a peptide substrate is measured as a function of compound concentration. Compounds to be tested are dissolved in DMSO to a concentration of 20 mM. These are diluted 30 μL into 120 μL of DMSO (4 mM) and 1 μL is added to an assay plate. These are then serially diluted […] (50 μL to 100 μL DMSO) for a total of 8 points. Plates are prepared such that each kinase reaction is 20 μL in 1× kinase buffer (25 mM HEPES, pH 7.5, 2 mM MgCl2, 2 mM MnCl2, 0.01% Tween-20, 1 mM DTT, 0.01% BSA), 5% DMSO and 100 μM ATP. Substrate is 30 nM biotin-(E4Y)10 (Millipore). C-kit kinase (obtained from Millipore (#14-559) or is prepared as described in U.S. Patent Application Publication Number 2009/0076046, the disclosure of which is hereby incorporated by reference as it relates to this assay) is at 0.75 ng per sample. After incubation of the kinase reaction for 1 hour at room temperature, 5 μL of donor beads (Streptavidin coated beads (Perkin Elmer Life Science) final concentration 10 μg/mL) in stop buffer (25 mM Hepes pH 7.5, 100 mM EDTA, 0.01% BSA) is added, the sample is mixed and incubated for 20 minutes at room temperature before adding 5 μL of acceptor beads (PY20 coated beads (Perkin Elmer Life Science) final concentration 10 μg/mL) in stop buffer. The samples are incubated for 60 minutes at room temperature and the signal per well is read on Envision reader. […] The signal vs. compound concentration is used to determine the IC50.

CYP2C19, sequence (P33261 whole entry): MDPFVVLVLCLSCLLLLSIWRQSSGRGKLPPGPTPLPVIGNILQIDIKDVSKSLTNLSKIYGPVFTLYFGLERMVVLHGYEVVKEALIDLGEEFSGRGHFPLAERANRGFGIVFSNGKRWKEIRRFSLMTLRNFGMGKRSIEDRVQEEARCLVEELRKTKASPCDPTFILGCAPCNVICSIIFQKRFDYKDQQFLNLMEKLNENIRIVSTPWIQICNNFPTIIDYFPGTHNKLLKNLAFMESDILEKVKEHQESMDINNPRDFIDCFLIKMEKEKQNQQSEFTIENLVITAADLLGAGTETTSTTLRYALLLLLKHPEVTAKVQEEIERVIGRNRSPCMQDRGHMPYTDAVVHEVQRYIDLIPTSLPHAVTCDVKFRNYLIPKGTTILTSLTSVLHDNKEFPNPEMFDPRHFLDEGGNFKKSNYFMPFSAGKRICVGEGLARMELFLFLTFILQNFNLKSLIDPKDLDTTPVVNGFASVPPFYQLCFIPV
Fms kinase, sequence (P07333 20-972): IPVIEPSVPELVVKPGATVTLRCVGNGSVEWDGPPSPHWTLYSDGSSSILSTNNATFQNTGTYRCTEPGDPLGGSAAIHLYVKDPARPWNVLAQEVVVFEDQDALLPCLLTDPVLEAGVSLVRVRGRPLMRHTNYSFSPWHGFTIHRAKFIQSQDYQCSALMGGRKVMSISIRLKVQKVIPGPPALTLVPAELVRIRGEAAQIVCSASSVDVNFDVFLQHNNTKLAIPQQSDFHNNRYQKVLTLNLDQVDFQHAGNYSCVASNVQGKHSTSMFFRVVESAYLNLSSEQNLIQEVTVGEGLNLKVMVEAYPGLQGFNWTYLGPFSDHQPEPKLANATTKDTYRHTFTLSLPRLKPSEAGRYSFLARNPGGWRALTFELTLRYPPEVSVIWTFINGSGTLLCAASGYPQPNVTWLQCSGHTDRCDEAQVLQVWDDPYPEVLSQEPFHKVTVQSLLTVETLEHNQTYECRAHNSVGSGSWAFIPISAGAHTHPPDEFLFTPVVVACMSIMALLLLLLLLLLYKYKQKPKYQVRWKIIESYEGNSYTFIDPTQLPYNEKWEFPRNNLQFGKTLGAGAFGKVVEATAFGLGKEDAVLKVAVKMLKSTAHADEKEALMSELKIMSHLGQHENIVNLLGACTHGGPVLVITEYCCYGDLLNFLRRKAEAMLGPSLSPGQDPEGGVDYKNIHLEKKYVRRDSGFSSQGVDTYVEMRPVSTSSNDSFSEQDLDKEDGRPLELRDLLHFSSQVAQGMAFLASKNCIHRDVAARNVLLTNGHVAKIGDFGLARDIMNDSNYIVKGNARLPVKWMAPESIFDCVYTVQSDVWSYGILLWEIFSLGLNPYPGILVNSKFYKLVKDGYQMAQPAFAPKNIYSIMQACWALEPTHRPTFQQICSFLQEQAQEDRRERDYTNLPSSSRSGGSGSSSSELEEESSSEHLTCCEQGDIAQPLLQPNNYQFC
CYP1A2, sequence (P05177 whole entry): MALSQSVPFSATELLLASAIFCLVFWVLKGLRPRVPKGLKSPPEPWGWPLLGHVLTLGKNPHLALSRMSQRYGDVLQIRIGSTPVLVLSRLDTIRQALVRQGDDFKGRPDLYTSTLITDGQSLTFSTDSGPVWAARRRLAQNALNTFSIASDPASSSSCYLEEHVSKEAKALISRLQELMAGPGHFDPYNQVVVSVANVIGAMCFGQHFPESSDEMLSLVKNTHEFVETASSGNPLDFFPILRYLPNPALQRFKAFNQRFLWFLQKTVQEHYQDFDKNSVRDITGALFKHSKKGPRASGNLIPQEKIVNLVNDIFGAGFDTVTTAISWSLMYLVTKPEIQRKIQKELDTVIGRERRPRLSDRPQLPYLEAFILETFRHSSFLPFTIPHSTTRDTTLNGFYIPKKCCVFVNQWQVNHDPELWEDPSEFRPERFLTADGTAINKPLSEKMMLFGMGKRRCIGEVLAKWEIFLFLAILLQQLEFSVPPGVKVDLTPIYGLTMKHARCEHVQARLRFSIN
CYP3A4(BQ), sequence (P08684 whole entry): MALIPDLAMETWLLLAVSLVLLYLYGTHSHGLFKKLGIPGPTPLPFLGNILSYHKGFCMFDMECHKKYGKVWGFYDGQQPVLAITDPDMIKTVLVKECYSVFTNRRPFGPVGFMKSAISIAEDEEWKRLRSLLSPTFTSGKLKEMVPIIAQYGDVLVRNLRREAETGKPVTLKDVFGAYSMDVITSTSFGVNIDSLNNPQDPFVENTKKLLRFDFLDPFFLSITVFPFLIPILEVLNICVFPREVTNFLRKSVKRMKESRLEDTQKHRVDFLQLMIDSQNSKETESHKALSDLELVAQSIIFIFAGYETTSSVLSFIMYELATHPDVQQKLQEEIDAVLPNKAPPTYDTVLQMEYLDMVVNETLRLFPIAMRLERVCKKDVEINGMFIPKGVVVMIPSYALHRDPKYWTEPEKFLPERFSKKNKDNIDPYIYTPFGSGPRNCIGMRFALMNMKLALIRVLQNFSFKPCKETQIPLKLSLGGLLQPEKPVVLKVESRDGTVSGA
CYP3A4(BFC), sequence (P08684 whole entry): as above
CYP2C9, sequence (P11712 whole entry): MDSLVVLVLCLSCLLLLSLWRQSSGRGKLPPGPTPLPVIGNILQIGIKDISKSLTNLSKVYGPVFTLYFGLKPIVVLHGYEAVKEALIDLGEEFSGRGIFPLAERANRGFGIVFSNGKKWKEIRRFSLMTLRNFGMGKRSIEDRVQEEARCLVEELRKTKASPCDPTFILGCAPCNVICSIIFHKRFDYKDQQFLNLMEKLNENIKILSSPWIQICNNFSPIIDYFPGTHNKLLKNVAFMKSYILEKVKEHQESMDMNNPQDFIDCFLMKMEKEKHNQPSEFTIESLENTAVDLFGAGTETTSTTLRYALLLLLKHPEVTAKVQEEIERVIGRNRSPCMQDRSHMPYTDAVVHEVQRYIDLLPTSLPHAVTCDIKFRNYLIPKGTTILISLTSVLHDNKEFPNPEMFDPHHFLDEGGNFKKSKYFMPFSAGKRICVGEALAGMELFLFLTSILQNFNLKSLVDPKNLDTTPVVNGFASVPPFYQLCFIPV
c-Kit kinase, sequence (P10721 26-976): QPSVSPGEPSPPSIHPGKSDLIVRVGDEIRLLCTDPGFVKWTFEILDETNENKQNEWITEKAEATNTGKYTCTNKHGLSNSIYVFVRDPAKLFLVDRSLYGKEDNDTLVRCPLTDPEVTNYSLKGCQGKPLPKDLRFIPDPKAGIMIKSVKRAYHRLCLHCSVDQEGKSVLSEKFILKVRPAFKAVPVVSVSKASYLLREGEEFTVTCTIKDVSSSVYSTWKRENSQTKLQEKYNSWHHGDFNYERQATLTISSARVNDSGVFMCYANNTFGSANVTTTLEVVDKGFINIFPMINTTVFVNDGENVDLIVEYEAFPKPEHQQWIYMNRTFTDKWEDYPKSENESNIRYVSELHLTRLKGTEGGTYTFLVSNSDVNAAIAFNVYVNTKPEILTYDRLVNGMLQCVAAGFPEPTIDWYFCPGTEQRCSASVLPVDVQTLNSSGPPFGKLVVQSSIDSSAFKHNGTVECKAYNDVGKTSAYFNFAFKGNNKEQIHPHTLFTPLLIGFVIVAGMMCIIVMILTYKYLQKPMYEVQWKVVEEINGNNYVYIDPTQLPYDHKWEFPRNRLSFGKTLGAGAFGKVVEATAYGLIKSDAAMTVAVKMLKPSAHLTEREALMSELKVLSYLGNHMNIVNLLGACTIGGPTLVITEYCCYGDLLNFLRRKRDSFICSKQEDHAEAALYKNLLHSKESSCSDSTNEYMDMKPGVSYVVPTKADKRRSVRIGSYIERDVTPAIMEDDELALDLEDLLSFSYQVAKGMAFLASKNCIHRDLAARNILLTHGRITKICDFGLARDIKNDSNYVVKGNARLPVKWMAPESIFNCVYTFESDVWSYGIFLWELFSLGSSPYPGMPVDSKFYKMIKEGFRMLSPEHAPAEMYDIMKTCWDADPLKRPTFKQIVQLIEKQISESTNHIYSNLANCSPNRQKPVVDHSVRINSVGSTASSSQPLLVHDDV
CYP2D6, sequence (P10635 whole entry): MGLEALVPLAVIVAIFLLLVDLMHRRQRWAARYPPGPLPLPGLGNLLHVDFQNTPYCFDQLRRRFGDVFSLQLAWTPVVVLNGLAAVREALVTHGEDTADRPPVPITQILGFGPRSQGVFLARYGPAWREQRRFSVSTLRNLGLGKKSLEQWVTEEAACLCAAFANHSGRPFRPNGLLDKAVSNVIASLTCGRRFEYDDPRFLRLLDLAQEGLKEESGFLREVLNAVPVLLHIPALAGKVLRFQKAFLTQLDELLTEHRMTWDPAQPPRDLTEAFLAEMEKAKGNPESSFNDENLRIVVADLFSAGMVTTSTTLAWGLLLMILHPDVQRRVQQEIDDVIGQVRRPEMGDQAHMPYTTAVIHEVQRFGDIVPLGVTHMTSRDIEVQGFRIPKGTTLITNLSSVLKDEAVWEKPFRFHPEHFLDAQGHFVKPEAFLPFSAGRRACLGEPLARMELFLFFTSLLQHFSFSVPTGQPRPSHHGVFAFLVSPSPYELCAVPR

SMILES | turbidity threshold (L, M, H) 1.4 [1] | turbidity threshold (L, M, H) 4.5 [1] | turbidity threshold (L, M, H) 6.8 [1] | turbidity threshold (L, M, H) 7.4 [1] | IC50 (CYP1A2) [µM] | IC50 (CYP2C19) [µM] | IC50 (CYP2C9) [µM] | IC50 (CYP2D6) [µM] | IC50 (CYP3A4(BFC)) [µM] | IC50 (CYP3A4(BQ)) [µM] | Biochemical activity selectivity (Kit IC50/Fms IC50) (Fms kinase; Kit IC50/Fms IC50, biochemical) | IC50 (Fms kinase; read-out: Biochemical activity (IC50 μM) Fms) [µM] | IC50 (c-Kit kinase) [µM] | IC50 (CYP2C19; read-out: Cyp IC50 (μM) 2C19) [µM] | IC50 (CYP2C9; read-out: Cyp IC50 (μM) 2C9) [µM] | IC50 (CYP3A4(BFC); read-out: Cyp IC50 (μM) 3A4(BFC), BFC substrate) [µM]
COc1ncc(F)cc1CNc1ccc(Cc2c[nH]c3ncc(C)cc23)c(F)n1 [Compound P-2049, (5-Fluoro-2-methoxy-pyridin-3-ylmethyl)-[6-fluoro-5-(5-methyl-1H-pyrrolo[2,3-b]pyridin-3-ylmethyl)-pyridin-2-yl]-amine] | M (moderate solubility if the threshold concentration is 31.3 μM to 250 μM) | L (low solubility if the threshold concentration is <31.3 μM) | L (low solubility if the threshold concentration is <31.3 μM) | L (low solubility if the threshold concentration is <31.3 μM) | > 10 | 5 to 10 | 5 to 10 | > 10 | 5 to 10 | > 10 |  |  |  |  |  | 
Cc1cnc2[nH]cc(Cc3ccc(NCc4ccnc(C)c4)nc3F)c2c1 [Compound P-2067, [6-Fluoro-5-(5-methyl-1H-pyrrolo[2,3-b]pyridin-3-ylmethyl)-pyridin-2-yl]-(2-methyl-pyridin-4-ylmethyl)-amine] | H (high solubility if the threshold concentration is >250 μM) | H (high solubility if the threshold concentration is >250 μM) | H (high solubility if the threshold concentration is >250 μM) | H (high solubility if the threshold concentration is >250 μM) | > 10 |  |  |  |  | > 10 | >20 | < 0.1 | > 0.1 | < 5 | < 5 | < 5
